“And” between values parts separate entries of the source, which are not always exact repeats. Equal values may be shown once.
Test system: TSC2−/− MEFs
Experiment: Rapamycin screen: SILAC quantitative phosphoproteomics (two biological replicates)
Format: cell-based, mouse
Description: Two sets of large-scale, quantitative phospho-proteomics experiments were performed to fully define how mTOR-containing complexes signal to downstream effectors (FIG. 1A). The first SILAC experiment (rapamycin screen) was performed using growth factor-deprived TSC2−/− mouse embryonic fibroblasts (MEFs).
Two populations of TSC2−/− cells were grown in parallel, one in conventional media (“light”) and the other in media containing [^13C6^15N2]lysine and [^13C6^15N4]arginine (“heavy”) (FIG. 1A and Table 5). […] We performed two biological replicates of this experimental design with cross-labeling (swapping the labeled state of the rapamycin-treated cells, Table 5), from which a total of 14,635 (FDR=0.25%) and 32,500 (FDR=0.28%) phosphopeptides were identified, respectively. These corresponded to identification of at least 4,484 and 6,832 unique phosphorylation sites on 1,615 and 1,866 proteins, respectively. The quantitation was highly accurate (Table 5) with 93.7% of the phosphoproteome changing less than 50% in abundance between the rapamycin-treated (light) and control (heavy) cells (second biological replicate experiment, Median Log2(H/L)=−0.02 and standard deviation Log2(H/L)=0.53, FIG. 1A). […] Note that the Rapamycin screen includes two biological replicates.
Using this criteria, several hundred peptides (corresponding to 148 and 85 proteins respectively, in the two biological replicates, Table 11) were determined to contain rapamycin-sensitive phosphorylation sites. […] Note that there are two biological replicate experiments for the rapamycin screen (“Table 11 Rapa Replicate 1,” and “Table 11 Rapa Replicate 2,” respectively) and one Ku-0063749 replicate (“Table 11 Ku”). Treatment for the light and heavy cells in each experiment is described in FIG. 1C. We observed a similar distribution for the phosphopeptides in the […] biological replicate experiment and found 85 proteins (Table 11) that carried rapamycin-sensitive phosphorylation sites.
The analysis identified 4,484 and 6,832 unique phosphorylation sites on 1,615 and 1,866 proteins from two biological replicate experiments, respectively, and achieved a high level of accuracy in quantitation (Table 5). […] A representative identification of the known rapamycin-sensitive phosphorylation sites on ribosomal protein S6 is shown in FIG. 1B.
TSC2−/− MEFs were used in the rapamycin screen due to constitutive hyperactivation of mTORC1 signaling in this cell line. Cells were grown in light ([^12C6^14N2]Lys, [^12C6^14N4]Arg) and heavy ([^13C6^15N2]Lys, [^13C6^15N4]Arg) DMEM (Cambridge Isotope Labs), respectively. Both light and heavy DMEM were supplemented with 10% dialyzed FBS (Invitrogen). Cells were serum-deprived for 17 hours and cells were cultured inheavy media were treated with 20 nM rapamycin for two hours. We performed two biological replicates of this experimental design with cross-labeling (swapping the labeled state of the rapamycin-treated cells).

[1] = downregulated phosphorylation, TSC2−/− MEFs, 20 nM rapamycin 2 h vs DMSO, second biological replicate

With CO[C@H]1C[C@@H]2CC[C@@H](C)[C@@](O)(O2)C(=O)C(=O)N2CCCC[C@H]2C(=O)O[C@H]([C@H](C)C[C@@H]2CC[C@@H](O)[C@H](OC)C2)CC(=O)[C@H](C)/C=C(\C)[C@@H](O)[C@@H](OC)C(=O)[C@H](C)C[C@H](C)/C=C/C=C/C=C/1C [rapamycin] the “Log2 Area (H/L) Ratio” value (Ahctf1 phosphopeptide NGVSLFNS*PKTEQPSPVVHSFPHPELPEAFVGTPISNTSQR, SEQ ID NO: 1120, rapamycin screen) was 1.0661, the “Log2 Area (H/L) Ratio” value (Ahctf1 phosphopeptide NGVSLFNSPK@T*EQPSPVVHSFPHPELPEAFVGTPISNTSQR^, SEQ ID NO: 1119, rapamycin screen) was 1.0661 and the “Log2 Area (H/L) Ratio” value (Ahctf1 phosphopeptide NGVSLFNSPK@TEQPSPVVHS*FPHPELPEAFVGTPISNTSQR^, SEQ ID NO: 1121, rapamycin screen) was 1.0661. The “Log2 Area (H/L) Ratio” value (Ahnak phosphopeptide S*NS*FSDERAEFSAPSTPTGTLEFAGGDAK@, SEQ ID NO: 1147, rapamycin screen) was 1.0143, the “Log2 Area (H/L) Ratio” value (Ahnak phosphopeptide S*NS*FSDEREFSAPSTPTGTLEFAGGDAK, SEQ ID NO: 1148, rapamycin screen) was 1.0143 and the “Log2 Area (H/L) Ratio” value (Ahnak phosphopeptide S*NS*FSDEREFSAPSTPTGTLEFAGGDAK, SEQ ID NO: 1149, rapamycin screen) was 1.0143. For the same molecule, the “Log2 Area (H/L) Ratio” value (Arhgap17 phosphopeptide LGEQGPEPGPT*PPQT*PT*PPST*PPLAK, SEQ ID NO: 1124, rapamycin screen) was 1.0618, the “Log2 Area (H/L) Ratio” value (Arid1a phosphopeptide GPS*PSPVGS*PASVAQSR^, SEQ ID NO: 1151, rapamycin screen) was 1.0107 and the “Log2 Area (H/L) Ratio” value (Atxn2 phosphopeptide TS*PAGGTWSSVVSGVPR, SEQ ID NO: 1157, rapamycin screen) was 1.0015. The “Log2 Area (H/L) Ratio” value (Atxn2 phosphopeptide TS*PAGGTWSSVVSGVPR^, SEQ ID NO: 1156, rapamycin screen) was 1.0015, the “Log2 Area (H/L) Ratio” value (Azi1 phosphopeptide ANNAGASIYPTGPADPCPPASES*S*PEQWQSPEDKPQDIHSQGEAR, SEQ ID NO: 1138, rapamycin screen) was 1.0268 and the “Log2 Area (H/L) Ratio” value (Dlg5 phosphopeptide SS*SHLDPAATPHSTLQGSSAGTPEHPSVIDPLMEQDEGPGTPPAK@, SEQ ID NO: 1129, rapamycin screen) was 1.0498. The “Log2 Area (H/L) Ratio” value (Eif4ebp1 phosphopeptide NS*PVAK@T*PPK@DLPAIPGVTSPTSDEPPM#QASQSQLPSSPEDK@, SEQ ID NO: 1143, rapamycin screen) was 1.0227, the “Log2 Area (H/L) Ratio” value (Eif4ebp1 phosphopeptide NS*PVAKT*PPKDLPAIPGVTSPT*SDEPPMQASQSQLPSS*PEDK, SEQ ID NO: 1150, rapamycin screen) was 1.0129 and the “Log2 Area (H/L) Ratio” value (Eif4ebp2 phosphopeptide TVAISDAAQLPQDYCTT*PGGTLFSTT*PGGTRIIYDR, SEQ ID NO: 1137, rapamycin screen) was 1.0271. For the same molecule, the “Log2 Area (H/L) Ratio” value (Eif4ebp2 phosphopeptide TVAISDAAQLPQDYCTT*PGGTLFSTT*PGGTR^IIYDR^, SEQ ID NO: 1136, rapamycin screen) was 1.0271, the “Log2 Area (H/L) Ratio” value (Erbb2ip phosphopeptide VGS*EHSLLDPPGK, SEQ ID NO: 1135, rapamycin screen) was 1.0307 and the “Log2 Area (H/L) Ratio” value (Erf phosphopeptide FPPST*PSEVLS*PTEDPRS*PPACSSSSSSLFSAVVAR, SEQ ID NO: 1154, rapamycin screen) was 1.0039. The “Log2 Area (H/L) Ratio” value (Fam129a phosphopeptide HNLFEDNM#ALPSESVSS*LTDLK, SEQ ID NO: 1142, rapamycin screen) was 1.0232, the “Log2 Area (H/L) Ratio” value (Fam129a phosphopeptide HNLFEDNMALPSES*VSSLTDLK@TAMGS*NQAS*PAR^R^, SEQ ID NO: 1152, rapamycin screen) was 1.0048 and the “Log2 Area (H/L) Ratio” value (Fam129a phosphopeptide HNLFEDNMALPSESVSSLT*DLK@TAMGS*NQAS*PAR^R^, SEQ ID NO: 1153, rapamycin screen) was 1.0048. The “Log2 Area (H/L) Ratio” value (Hells phosphopeptide S*INYSELDQFPSELEK, SEQ ID NO: 1132, rapamycin screen) was 1.0332, the “Log2 Area (H/L) Ratio” value (Hells phosphopeptide S*INYSELDQFPSELEK@, SEQ ID NO: 1133, rapamycin screen) was 1.0332 and the “Log2 Area (H/L) Ratio” value (Hells phosphopeptide S*INYSELDQFPSELEK@, SEQ ID NO: 1134, rapamycin screen) was 1.0332. For the same molecule, the “Log2 Area (H/L) Ratio” value (Ncaph2 phosphopeptide NGS*PVPVPDIS*QEPDGPALSGGEEDAEDGAEPLEVALEPAEPR^, SEQ ID NO: 1127, rapamycin screen) was 1.0598, the “Log2 Area (H/L) Ratio” value (Ncaph2 phosphopeptide NGS*PVPVPDISQEPDGPALS*GGEEDAEDGAEPLEVALEPAEPR, SEQ ID NO: 1126, rapamycin screen) was 1.0598 and the “Log2 Area (H/L) Ratio” value (Ncaph2 phosphopeptide NGS*PVPVPDISQEPDGPALS*GGEEDAEDGAEPLEVALEPAEPR^, SEQ ID NO: 1125, rapamycin screen) was 1.0598. For the same molecule, the “Log2 Area (H/L) Ratio” value (Pbx1 phosphopeptide TAVTATNVSAHGSQANS*PSTPNSAGGY*PSPCYQPDR^R^, SEQ ID NO: 1128, rapamycin screen) was 1.054, the “Log2 Area (H/L) Ratio” value (Pds5b phosphopeptide AES*PETSAVESTQST*PQK, SEQ ID NO: 1141, rapamycin screen) was 1.0246 and the “Log2 Area (H/L) Ratio” value (Pds5b phosphopeptide AES*PETSAVESTQST*PQK@, SEQ ID NO: 1139, rapamycin screen) was 1.0246. The “Log2 Area (H/L) Ratio” value (Pds5b phosphopeptide AES*PETSAVESTQST*PQK@, SEQ ID NO: 1140, rapamycin screen) was 1.0246, the “Log2 Area (H/L) Ratio” value (Phldb1 phosphopeptide WAAHGTS*PEDFSLTLGAR^, SEQ ID NO: 1118, rapamycin screen) was 1.068 and the “Log2 Area (H/L) Ratio” value (Ranbp10 phosphopeptide SQDS*YPGS*PSLSPR, SEQ ID NO: 1161, rapamycin screen) was 1.0009. For the same molecule, the “Log2 Area (H/L) Ratio” value (Ranbp10 phosphopeptide SQDSYPGS*PSLS*PR, SEQ ID NO: 1158, rapamycin screen) was 1.0009, the “Log2 Area (H/L) Ratio” value (Ranbp10 phosphopeptide SQDSYPGS*PSLS*PR^, SEQ ID NO: 1159, rapamycin screen) was 1.0009 and the “Log2 Area (H/L) Ratio” value (Ranbp10 phosphopeptide SQDSYPGS*PSLS*PR^, SEQ ID NO: 1160, rapamycin screen) was 1.0009. The “Log2 Area (H/L) Ratio” value (Ranbp10 phosphopeptide SQDSYPGS*PSLS*PR^, SEQ ID NO: 1162, rapamycin screen) was 1.0009, the “Log2 Area (H/L) Ratio” value (Rb1 phosphopeptide DGEGPDNLEPACPLSLPLQGNHTAADMYLS*PLRS*PK, SEQ ID NO: 1123, rapamycin screen) was 1.0618 and the “Log2 Area (H/L) Ratio” value (Rb1 phosphopeptide DGEGPDNLEPACPLSLPLQGNHTAADMYLS*PLR^S*PK@, SEQ ID NO: 1122, rapamycin screen) was 1.0618. The “Log2 Area (H/L) Ratio” value (Samhd1 phosphopeptide CDGS*PR^T*PPS*TPPATANLSADDDFQNTDLR^, SEQ ID NO: 1155, rapamycin screen) was 1.0027, the “Log2 Area (H/L) Ratio” value (Shroom2 phosphopeptide SRS*S*PSTDHYSQEVPVEPNR, SEQ ID NO: 1144, rapamycin screen) was 1.0176 and the “Log2 Area (H/L) Ratio” value (Shroom2 phosphopeptide SRS*S*PSTDHYSQEVPVEPNR, SEQ ID NO: 1145, rapamycin screen) was 1.0176. For the same molecule, the “Log2 Area (H/L) Ratio” value (Shroom2 phosphopeptide SR^S*S*PSTDHYSQEVPVEPNR^, SEQ ID NO: 1146, rapamycin screen) was 1.0176, the “Log2 Area (H/L) Ratio” value (Tox4 phosphopeptide LSTTPS*PTNS*LHEDGVDDFRR, SEQ ID NO: 1130, rapamycin screen) was 1.0342 and the “Log2 Area (H/L) Ratio” value (Tox4 phosphopeptide LSTTPS*PTNS*LHEDGVDDFRR, SEQ ID NO: 1164, rapamycin screen) was 1.0005. For the same molecule, the “Log2 Area (H/L) Ratio” value (Tox4 phosphopeptide LSTTPS*PTNS*LHEDGVDDFR^R^, SEQ ID NO: 1131, rapamycin screen) was 1.0342, the “Log2 Area (H/L) Ratio” value (Tox4 phosphopeptide LSTTPS*PTNS*LHEDGVDDFR^R^, SEQ ID NO: 1163, rapamycin screen) was 1.0005 and the “Median (treated/ctrl) fold-change of phosphopeptide Eif4ebp1 S64, T69” value [1] was 2.8 fold. The “Median (treated/ctrl) fold-change of phosphopeptide Eif4ebp2 S65, T70” value [1] was 39.1 fold, the “Median (treated/ctrl) fold-change of phosphopeptide Eif4ebp2 T37, T46” value [1] was 2.3 fold and the “Median (treated/ctrl) fold-change of phosphopeptide LSSLRAS*TS*KSES*S*QK, RPS6 S240, S242, S246, S247” value [1] was 4.5 fold. For the same molecule, the “Median (treated/ctrl) fold-change of phosphopeptide MNILSS*QS*PLHPSTLNAVIHR, Grb10 S421, S423 (isoform 3; S501/S503 in isoform 1)” value [1] was “more than 27 fold and 27.3 fold”, the “Median (treated/ctrl) fold-change of phosphopeptide RLS*S*LRASTSK, RPS6 S235, S236” value [1] was 30.5 fold and the “Median (treated/ctrl) fold-change of phosphopeptide Rps6kb1 S441, T444, S447” value [1] was 2.8 fold. The “Median (treated/ctrl) fold-change of phosphopeptide S*LPVSVPVWAFK, Akt1s1 S184” value [1] was 2.2 fold, the “Median (treated/ctrl) fold-change of phosphopeptide SFS*KEVEER, Eif4g1 S1189” value [1] was 2.8 fold and the “Median (treated/ctrl) fold-change of phosphopeptide SRT*GS*ESSQTGASATSGR, Eif4b T420, S422” value [1] was 4.3 fold. For the same molecule, the “Median (treated/ctrl) fold-change of phosphopeptide TGS*ESS*QTGASATSGR, Eif4b S422, S425” value [1] was 4.6 fold, the “Median (treated/ctrl) fold-change of phosphopeptide TTS*FAESCKPVQQPSAFGSMK, Gsk3β S9” value [1] was “approximately 3.3 fold and 3.3 fold” and the “Median (treated/ctrl) fold-change of phosphopeptide ULK1 S747, S757, T763” value [1] was 4 fold and 4.1 fold. For the same molecule, the “Median (treated/ctrl) fold-change of triply phosphorylated Grb10 peptide T76, S96, S104” value [1] was 5.4 fold and the “decrease of 4EBP1 T36/T45 phosphorylation after rapamycin treatment” value (rapamycin screen) was 20%.
